Source: patent publication US7132437B2, “Renal-selective biphenylalkyl 1H-substituted-1,2,4-triazole angiotensin II antagonists for treatment of hypertension” (G.D. Searle, priority 1990, dated 2006)

Columns and labels:
[1] = tested on: spontaneously hypertensive rats (SHR); assay: Assay D: In Vivo Effects of Chronic Infusion of Conjugate (mean arterial pressure, heart rate); design: species or system rat
Description: Assay D: In Vivo Effects of Chronic Infusion of Conjugate of the Invention
(§1) This in vivo experiment was conducted to characterize the effects of the Example 79 conjugate on spontaneously hypertensive rats (SHR) by acute administration i.v. and by chronic administration i.v. The […] compound or saline vehicle was infused continuously for four days in SHR. Mean arterial pressure was measured (Gould Chart Recorder, model 3800; Statham P23 Db pressure transducer) via an indwelling femoral artery catheter between 10:00 a.m. and 2:00 P.M. each day. The Example 79 conjugate (10 mg/hr) or saline was infused via a jugular vein catheter with a Harvard infusion pump. […] A test was conducted to determine whether the Example 79 conjugate would antagonize non-renal, vascular angiotensin II receptors. In this test AII was administered by bolus injection (100 ng/kg) to the SHR rats (described above) on the control day and on days 1, 3 and 4 during conjugate infusion.

[2] = target: T1, non-renal, vascular angiotensin II receptors (Rattus norvegicus, UniProt P25095); assay: Assay D: AII pressor response during conjugate infusion (systemic AII antagonism); type: in vivo; details: SHR, AII bolus 100 ng/kg on control day and days 1, 3 and 4 of infusion
T1 construct: from tissue; host or cells: whole animal: spontaneously hypertensive rat (SHR), systemic vasculature
T1 sequence (P25095 1-359): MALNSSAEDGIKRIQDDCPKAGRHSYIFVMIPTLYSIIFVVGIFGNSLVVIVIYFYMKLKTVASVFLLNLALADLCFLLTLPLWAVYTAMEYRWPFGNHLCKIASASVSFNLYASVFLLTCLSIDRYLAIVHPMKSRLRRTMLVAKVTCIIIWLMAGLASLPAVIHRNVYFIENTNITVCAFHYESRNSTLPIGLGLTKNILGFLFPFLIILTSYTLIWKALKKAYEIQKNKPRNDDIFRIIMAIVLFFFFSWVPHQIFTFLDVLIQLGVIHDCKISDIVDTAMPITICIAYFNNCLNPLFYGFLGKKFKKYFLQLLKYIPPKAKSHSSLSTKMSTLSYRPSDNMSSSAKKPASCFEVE
Description: as §1

## CCCCc1nc(CCCC)n(Cc2ccc(-c3ccccc3C(=O)NNC(=O)CCC(NC(C)=O)C(=O)O)cc2)n1 (stereo not shown) [Example 79 conjugate, N-acetylglutamic acid, 5-[[4′-[(3,5-dibutyl-1H-1,2,4-triazol-1-yl)methyl][1,1′-biphenyl]-2-yl]]carbonylhydrazide]
[1]; 10 mg/hr infused for four days
  mean arterial pressure compared to saline vehicle control: lowered mean arterial pressure
[1]; day 1 of conjugate infusion
  tachycardia: Tachycardia was observed on day 1
[1]; days 2 to 4 of conjugate infusion
  Heart Rate: heart rate was returned to control level during the next three days
[2]
  systemic angiotensin II receptor antagonism: No evidence for systemic angiotensin II receptor antagonism was observed
